The source made the active and inactive calls. No cut-off for these calls is given here. A value given as a limit tells only on which side of the number the result lay.

Series [1] has as its system HepG2. In words: Antitumour activity against CM-Dil labeled human HepG2 cells xenografted in AB zebrafish embryo assessed as retarded tumor growth measured after 48 hrs by confocal microscopy analysis. The following applies: dose 12-48 µM. Format: functional, cell-based.
Series [2] deals with HeLa. In words: Cytotoxicity against human HeLa cells assessed as inhibition of cell proliferation incubated for 48 hrs by MTT assay. Format: functional, cell-based. A general note: Tetrazolium dyes change colour on reduction, which living cells bring about.
In series [3] the test system is HeLa. In words: Induction of apoptosis in human HeLa cells assessed as necrotic cells at 6 uM measured after 48 hrs by Annexin V-FITC/propidium iodide staining based flow cytometric analysis (reference value: 1.32 %). Format: functional. For orientation: A flow cytometer gives signals particle by particle.
Series [4] deals with HeLa. In words: Cell cycle arrest in human HeLa cells assessed as accumulation at S phase at 12 uM measured after 48 hrs by PI-staining based flow cytometric analysis (reference value: 51.39%). Format: functional.
Series [5] deals with HeLa. In words: Cell cycle arrest in human HeLa cells assessed as accumulation at G2 phase at 12 uM measured after 48 hrs by PI-staining based flow cytometric analysis (reference value: 8.58%). Format: functional.
For series [6], the system named is HeLa. Nature of the series: Induction of apoptosis in human HeLa cells assessed as viable cells at 6 uM measured after 48 hrs by Annexin V-FITC/propidium iodide staining based flow cytometric analysis (reference value: 83.1 %). Format: functional. The following applies: read-out: Activity.
Series [7] has as its system HeLa. Nature of the series: Induction of apoptosis in human HeLa cells assessed as late apoptotic cells at 12 uM measured after 48 hrs by Annexin V-FITC/propidium iodide staining based flow cytometric analysis (reference value: 12.2 %). Format: functional.
In series [8] the test system is HeLa. In words: Induction of apoptosis in human HeLa cells assessed as viable cells at 24 uM measured after 48 hrs by Annexin V-FITC/propidium iodide staining based flow cytometric analysis (reference value: 83.1 %). Format: functional. The following applies: read-out: Activity.
For series [9], the system named is HeLa. In words: Induction of apoptosis in human HeLa cells assessed as early apoptotic cells at 24 uM measured after 48 hrs by Annexin V-FITC/propidium iodide staining based flow cytometric analysis (reference value: 3.34 %). Format: functional.
Series [10] relates to HepG2. Nature of the series: Cytotoxicity against human HepG2 cells assessed as inhibition of cell proliferation incubated for 48 hrs by MTT assay. Format: functional, cell-based. The settings on record: HepG2, 48 h.
Series [11] is described as follows: Effect on STAT3 protein level in human HeLa cells at 6 to 24 uM by Western blotting. Format: ADME, cell-based. The following applies: dose 6-24 µM. (In western blotting, separated proteins are transferred to a membrane and probed.)
Series [12] has as its target Signal transducer and activator of transcription 3 (Homo sapiens) (UniProt P40763). In words: Inhibition of STAT3 phosphorylation in human HeLa cells measured after 12 hrs by western blot analysis. Format: cell-based.
The test system of series [13] is HeLa. In words: Induction of apoptosis in human HeLa cells assessed as early apoptotic cells at 6 uM measured after 48 hrs by Annexin V-FITC/propidium iodide staining based flow cytometric analysis (reference value: 3.34 %). Format: functional.
Series [14] deals with HeLa. Nature of the series: Induction of apoptosis in human HeLa cells assessed as late apoptotic cells at 6 uM measured after 48 hrs by Annexin V-FITC/propidium iodide staining based flow cytometric analysis (reference value: 12.2 %). Format: functional.
In series [15] the target is Signal transducer and activator of transcription 3 (Homo sapiens) (UniProt P40763). Nature of the series: Inhibition of STAT3 activation in human HeLa cells measured after 12 hrs by western blot analysis. Format: cell-based.
The subject of series [16] is HeLa. In words: Cell cycle arrest in human HeLa cells assessed as accumulation at G0/G1 phase at 12 uM measured after 48 hrs by PI-staining based flow cytometric analysis (reference value: 40.03%). Format: functional.
Series [17] relates to HeLa. In words: Induction of apoptosis in human HeLa cells assessed as necrotic cells at 12 uM measured after 48 hrs by Annexin V-FITC/propidium iodide staining based flow cytometric analysis (reference value: 1.32 %). Format: functional.
The test system of series [18] is HeLa. Nature of the series: Cell cycle arrest in human HeLa cells assessed as accumulation at G2 phase at 6 uM measured after 48 hrs by PI-staining based flow cytometric analysis (reference value: 8.58%). Format: functional.
The subject of series [19] is HeLa. In words: Induction of apoptosis in human HeLa cells assessed as early apoptotic cells at 12 uM measured after 48 hrs by Annexin V-FITC/propidium iodide staining based flow cytometric analysis (reference value: 3.34 %). Format: functional.
Series [20] has as its system HeLa. In words: Cell cycle arrest in human HeLa cells assessed as accumulation at S phase at 24 uM measured after 48 hrs by PI-staining based flow cytometric analysis (reference value: 51.39%). Format: functional.
For series [21], the system named is HeLa. Nature of the series: Cell cycle arrest in human HeLa cells assessed as accumulation at G0/G1 phase at 24 uM measured after 48 hrs by PI-staining based flow cytometric analysis (reference value: 40.03%). Format: functional.
Series [22] relates to HeLa. In words: Induction of apoptosis in human HeLa cells assessed as necrotic cells at 24 uM measured after 48 hrs by Annexin V-FITC/propidium iodide staining based flow cytometric analysis (reference value: 1.32 %). Format: functional.
Series [23] concerns HeLa. In words: Cell cycle arrest in human HeLa cells assessed as accumulation at S phase at 6 uM measured after 48 hrs by PI-staining based flow cytometric analysis (reference value: 51.39%). Format: functional.
Series [24] has as its system HeLa. Nature of the series: Cell cycle arrest in human HeLa cells assessed as accumulation at G0/G1 phase at 6 uM measured after 48 hrs by PI-staining based flow cytometric analysis (reference value: 40.03%). Format: functional.
The subject of series [25] is HeLa. In words: Induction of apoptosis in human HeLa cells assessed as viable cells at 12 uM measured after 48 hrs by Annexin V-FITC/propidium iodide staining based flow cytometric analysis (reference value: 83.1 %). Format: functional. The settings on record: read-out: Activity.
For series [26], the species on record is Danio rerio. In words: Antiangiogenesis activity in Tg(fli1:EGFP) transgenic zebrafish embryo assessed as change in intersegmental vessels length at 48 uM measured after 48 hrs by confocal microscopy analysis (reference value: 3233.3 micrometer). Format: functional.
For series [27], the system named is HeLa. In words: Induction of apoptosis in human HeLa cells assessed as late apoptotic cells at 24 uM measured after 48 hrs by Annexin V-FITC/propidium iodide staining based flow cytometric analysis (reference value: 12.2 %). Format: functional.
The species entered for series [28] is Danio rerio. In words: Antiangiogenesis activity in Tg(fli1:EGFP) transgenic zebrafish embryo assessed as change in intersegmental vessels length at 24 uM measured after 48 hrs by confocal microscopy analysis (reference value: 3233.3 micrometer). Format: functional.
Series [29] deals with HeLa. Nature of the series: Induction of reactive oxygen species generation in human HeLa cells assessed as increase in ROS level at 2.5 to 30 uM measured after 48 hrs by DCFH-DA staining based flow cytometric analysis. The settings on record: dose 2.5-30 µM. Format: functional, cell-based.
Series [30] concerns HeLa. In words: Cell cycle arrest in human HeLa cells assessed as accumulation at G2 phase at 24 uM measured after 48 hrs by PI-staining based flow cytometric analysis (reference value: 8.58%). Format: functional.
For series [31], the system named is K562. Nature of the series: Cytotoxicity against human K562 cells assessed as inhibition of cell proliferation incubated for 48 hrs by MTT assay. Format: functional, cell-based. The following applies: K562, 48 h.
For series [32], the species on record is Danio rerio. Nature of the series: Antiangiogenesis activity in Tg(fli1:EGFP) transgenic zebrafish embryo assessed as change in intersegmental vessels length at 12 uM measured after 48 hrs by confocal microscopy analysis (reference value: 3233.3 micrometer). Format: functional.

Signal transducer and activator of transcription 3 (Homo sapiens), sequence (P40763 whole entry): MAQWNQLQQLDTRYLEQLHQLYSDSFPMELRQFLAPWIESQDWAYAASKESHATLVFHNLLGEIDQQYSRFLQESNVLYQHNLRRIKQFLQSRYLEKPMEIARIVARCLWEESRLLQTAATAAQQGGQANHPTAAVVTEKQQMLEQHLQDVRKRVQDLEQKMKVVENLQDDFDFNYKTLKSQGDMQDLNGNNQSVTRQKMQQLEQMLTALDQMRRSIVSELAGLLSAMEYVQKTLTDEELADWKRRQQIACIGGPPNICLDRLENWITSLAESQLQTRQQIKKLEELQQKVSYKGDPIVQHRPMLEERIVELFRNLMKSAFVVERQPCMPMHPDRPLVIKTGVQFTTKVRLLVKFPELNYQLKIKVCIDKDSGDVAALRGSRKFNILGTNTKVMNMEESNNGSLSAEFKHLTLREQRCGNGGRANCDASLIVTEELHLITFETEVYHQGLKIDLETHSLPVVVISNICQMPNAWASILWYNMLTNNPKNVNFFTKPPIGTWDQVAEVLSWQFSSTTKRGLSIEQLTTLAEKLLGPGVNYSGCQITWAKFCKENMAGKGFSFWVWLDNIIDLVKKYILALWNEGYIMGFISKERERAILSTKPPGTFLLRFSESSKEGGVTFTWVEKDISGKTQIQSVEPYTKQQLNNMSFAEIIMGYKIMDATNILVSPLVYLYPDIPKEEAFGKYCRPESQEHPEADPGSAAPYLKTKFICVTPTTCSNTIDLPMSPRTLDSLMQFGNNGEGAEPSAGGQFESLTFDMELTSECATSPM

`COc1cc([C@@H]2c3cc4c(cc3[C@@H](O[C@@H]3O[C@@H]5CO[C@@H](C)O[C@H]5[C@H](O)[C@H]3O)[C@H]3COC(=O)[C@H]23)OCO4)cc(OC)c1O`: in [1], the Activity entry is “Dose-Dependent Effect”.

Consider `COC(=O)C[C@](O)(CCCC(C)(C)O)C(=O)O[C@@H]1C(OC)=C[C@]23CCCN2CCc2cc4c(cc2[C@H]13)OCO4` [OMACETAXINE MEPESUCCINATE], for which, in series [2], the IC50 (commonly the concentration at which inhibition is half-maximal) is 0.4 µM.

Turning to `COC(C)(C)CCc1c(O)c(O)cc2oc3c4c(c(CC=C(C)C)c(O)c3c(=O)c12)OC(C)(C)C=C4`, the Activity was 1.72% in series [3]; 29.59% in series [4]; 4.63% in series [5]; 18% in series [7]; 13.6% in series [9]; “Non-Toxic” in series [11]. For the same molecule, the Activity is 6.92% in [13]; 16.1% in series [14]; 65.78% in series [16]; 2.63% in series [17]; 6.58% in [18]; 8.23% in series [19]. In addition, the Activity in [20] came out at 31.09%; in series [21], 67.2%; in series [22], 3.76%; in series [23] it was 38.09%; in [24], 55.33%; in [26] it was 1881.6 um. The Activity in series [27] was 24%; in series [1] it was “Dose-Dependent Effect”; in series [28] it was 2263.2 um; in [30] it was 1.71%; in [32], 2476.5 um. Also, the viability at 6 µM in series [6] is 75.2%. Further, the viability at 24 µM in series [8] came to 58.1%. The IC50 was over 10 µM in series [10], over 10 µM in [31] and 9.6 µM in series [2]. In series [12], the inhibition result was “Active”. Also, the inhibition entry in series [15] was “Dose-Dependent Effect”. In addition, the viability at 12 µM in series [25] was 71.2%. Moreover, the result in series [29] was Active.

The record behind these values is ChEMBL document CHEMBL4837196, “Cytotoxic and Antiangiogenetic Xanthones Inhibiting Tumor Proliferation and Metastasis from Garcinia xipshuanbannaensis” (J Nat Prod, 2021).
